Measurements reported in PMC10101059, “Rational Design of Stapled Antimicrobial Peptides to Enhance Stability and In Vivo Potency against Polymicrobial Sepsis” (Microbiology Spectrum, 2023).
Bridge positions count the residues as written; N and C are the ends. Square brackets hold non-standard residues; d marks the D form. Peptide text beside a SMILES is read from it. R5 = C=CCCC[C@@](C)(N)C(=O)O

Experiments:
human red blood cells = format: cell-based
Method in brief: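 Healthy human blood as a 2% cell suspension in normal saline was mixed 1:1 with peptide at graded concentrations and held at 37 ± 2°C for 1 h. After centrifugation, supernatant absorbance at 540 nm gave percent hemolysis relative to controls.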

A. baumannii [1] = test: NPN membrane permeabilization assay; format: cell-based, Acinetobacter baumannii; conditions: 25 μM, 10^8 CFU/mL
Description: Mid-log-phase bacterial cells (A. baumannii) were resuspended in 10 mM PBS (pH 7.4) to a density of 10^8 CFU/mL. The cell suspension was supplemented with 25 mM glucose followed by 15 min incubation at 37°C. After the incubation, N-phenyl-1-naphthylamine dye was added to a final concentration of 10 μM. Next, 90 μL of bacterial cells was transferred to a 96-well black plate, and fluorescence was recorded for 40 min (excitation/emission: 350/420 nm). […] After this treatment, fluorescence was recorded for an additional 20 min ([53]). Data are presented as fluorescence values as a function of time. Permeabilization of blank- and test compound-treated cells was compared. For the PI membrane permeabilization assay, 10^8 bacterial cells (A. baumannii) were resuspended in MHB containing 20 μg/mL PI. […] Fluorescence was read (excitation/emission: 584/620 nm). Fluorescence values of blank- and compound-treated cells were graphed as a function of time ([54], [55]).

A. baumannii [2] = test: SEM and TEM analysis; format: cell-based, Acinetobacter baumannii; conditions: 1× MIC
Description: The treated suspension was washed twice with 10 mM PBS (pH 7.4) followed by treatment with 4% glutaraldehyde. Next, the suspension was incubated for 30 min at 4°C. Following the incubation, the treated suspension was centrifuged (5,000 × g, 10 min), and the pellet was placed on a glass slide and allowed to attach for 30 min. The glass slide was then subjected to gradient ethanol washing from 0% to 100% ethanol. Finally, the glass slides were dried and coated with gold for imaging ([55]). For TEM, glutaraldehyde samples were cryoimmobilized and subjected to TEM imaging ([58], [59]).

female C57BL/6 mice = test: In vivo toxicity
Description: The in vivo toxicity of TP4-3 was assessed in female C57BL/6 mice (BioLasco, Ilan, Taiwan) upon intravenous administration of TP4-3 (9, 45, and 60 mg/kg). […] All animals were monitored for 7 days. The number of dead animals and animal body weights were measured every 24 h. Seven days after the drug administration, blood samples were collected, and the animals were euthanized. ALT (GPT), AST (GOT), CRE, and BUN were analyzed using a dry-chemistry analyzer (Fujifilm DRI-CHEM 4000i) and commercially available kits (Fujifilm Corp., Tokyo, Japan) ([23], [54]). All animal experiments were approved by the institutional ethical committee (IACUC, Academia Sinica; ID no. 2021-12-1577 and 2021-12-1771).

## CC[C@H](C)[C@H](NC(=O)[C@@H](NC(=O)[C@@H](N)Cc1ccccc1)[C@@H](C)CC)C(=O)N[C@]1(C)CCCC=CCCC[C@](C)(C(=O)NCC(=O)N[C@@H](CC(C)C)C(=O)N[C@@H](Cc2ccccc2)C(=O)N[C@@H](CCCCN)C(=O)N[C@@H](CCCCN)C(=O)N[C@@H](CCCCN)C(=O)N[C@@H](C)C(=O)NCC(=O)N[C@@H](C)C(=O)N[C@]2(C)CCCC=CCCC[C@](C)(C(=O)N[C@H](C(=O)N[C@@H](CCCCN)C(=O)N[C@@H](CCCCN)C(=O)O)[C@@H](C)CC)NC(=O)[C@H](CCCCN)NC(=O)[C@H](CCCCN)NC(=O)[C@H](CCCCN)NC2=O)NC(=O)[C@H](CO)NC(=O)[C@H](CCCCN)NC(=O)[C@H](CCCCN)NC1=O [TP4-3] (H-FII[R5]KKS[R5]GLFKKKAGA[R5]KKK[R5]IKK-OH; staple 4-8, 18-22; N-terminus and C-terminus assumed)
Human red blood cells
  15% hemolysis concn: >100 µM
A. baumannii [1]
  NPN fluorescence signal vs controls: ~4 fold
A. baumannii [2]
  bacterial membrane architecture (SEM, TEM): significant membrane deformation
Female C57BL/6 mice; 60 mg/kg i.v.
  time to death after treatment: ≤ 10 min
Female C57BL/6 mice; i.v. 9 or 45 mg/kg, 7 days
  body weight: No significant changes in body weight
Female C57BL/6 mice; i.v. doses of 9 or 45 mg/kg, 7 days
  survival: All treated animals survived
Female C57BL/6 mice; i.v., TP4-3 up to 45 mg/kg, meropenem 10 mg/kg, day 7
  kidney (BUN, CRE) and liver (GOT, GPT) function markers: no obvious effects
